{
  "source": "paper PMC4918035",
  "about": "“A human and animal model-based approach to investigating the anti-inflammatory profile and potential of the 5-HT2B receptor antagonist AM1030” (Journal of Inflammation (London, England), 2016)",
  "origin": "cited, not measured here",
  "molecular_target": "T1, 5-HT2B receptor (Homo sapiens, UniProt P41595)",
  "T1 construct": "gene HTR2B",
  "T1 sequence (P41595 whole entry)": "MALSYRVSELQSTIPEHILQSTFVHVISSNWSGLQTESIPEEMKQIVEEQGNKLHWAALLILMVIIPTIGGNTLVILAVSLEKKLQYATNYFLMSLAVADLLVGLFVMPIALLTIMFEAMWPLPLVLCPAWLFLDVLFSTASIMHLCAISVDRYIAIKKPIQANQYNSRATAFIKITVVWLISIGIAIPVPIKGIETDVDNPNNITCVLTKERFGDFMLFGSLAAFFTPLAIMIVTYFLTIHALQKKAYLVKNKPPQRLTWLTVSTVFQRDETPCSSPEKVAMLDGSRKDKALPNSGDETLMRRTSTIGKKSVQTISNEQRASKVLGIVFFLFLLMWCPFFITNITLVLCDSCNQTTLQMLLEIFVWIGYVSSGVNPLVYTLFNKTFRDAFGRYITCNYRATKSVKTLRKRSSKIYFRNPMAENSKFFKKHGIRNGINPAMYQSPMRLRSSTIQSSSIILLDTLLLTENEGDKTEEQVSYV",
  "test": "receptor binding (Ki) and functional inhibition (IC50 […]); assay details not described",
  "data": [
    {"substance": "AM1030", "values": [
      {"measurement": "Ki", "result": 330, "unit": "nM"}
    ]}
  ]
}
